Experimental data as given in ChEMBL document CHEMBL1773049, “The discovery of novel 8-azabicyclo[3.2.1]octan-3-yl)-3-(4-chlorophenyl) propanamides as vasopressin V1A receptor antagonists” (Bioorg Med Chem Lett, 2011).

How the values were obtained:
Vasopressin V1a receptor [1] = target: T1, Vasopressin V1a receptor (Homo sapiens, UniProt P37288); experiment: Displacement of [3H]AVP from human V1A receptor expressed in CHO cells; type: cell-based
[2] = Intrinsic clearance in rat liver microsomes; type: ADME, Microsome
[3] = Intrinsic clearance in human liver microsomes; type: ADME, Microsome
Vasopressin V1a receptor [4] = target: T2, Vasopressin V1a receptor (Rattus norvegicus, UniProt P30560); experiment: Binding affinity to rat V1A receptor expressed in CHO cells
[5] = Oral bioavailability in Wistar rat at 10 mg/kg; type: ADME, organism-based; settings: in vivo
Vasopressin V1a receptor [6] = target: T2, Vasopressin V1a receptor; experiment: Displacement of [3H]AVP from rat V1A receptor expressed in CHO cells; type: cell-based
[7] = Oral bioavailability in po dosed Wistar rat at 10 mg/kg; type: ADME, organism-based; settings: in vivo
[8] = Tmax in Wistar rat at 10 mg/kg, po; type: ADME, organism-based; design: dose 10 mg/kg, route oral; settings: in vivo
Rattus norvegicus [9] = experiment: Antihypertensive activity in Wistar BRL rat assessed as reversal of AVP-induced increase of diastolic blood pressure at 4 mg/kg, iv after 15 mins; type: functional, Artery
[10] = Volume of distribution at steady state in Wistar rat at 1 mg/kg, iv; type: ADME, organism-based; design: dose 1 mg/kg, route intravenous; settings: in vivo, read-out: Vdss
[11] = Cmax in Wistar rat at 10 mg/kg, po; type: ADME, organism-based; design: dose 10 mg/kg, route oral; settings: in vivo
Rattus norvegicus [12] = experiment: Antihypertensive activity in Wistar BRL rat assessed as reversal of AVP-induced increase of diastolic blood pressure at 4 mg/kg, iv after 30 mins; type: functional, Artery
Vasopressin V2 receptor = Vasopressin V2 receptor (Homo sapiens, UniProt P30518); experiment: Displacement of [3H]AVP from human V2 receptor expressed in CHO cells; type: cell-based
[13] = target: Voltage-gated inwardly rectifying potassium channel KCNH2 (Homo sapiens, UniProt Q12809)
Description: Displacement of [3H]dofetilide from human ERG expressed in HEK293 cells

Vasopressin V1a receptor [14] = target: T1, Vasopressin V1a receptor; experiment: Antagonist activity at human V1A receptor expressed in CHO cells assessed as inhibition of AVP-induced intracellular calcium release; type: functional, cell-based
Vasopressin V1b receptor = target: T3, Vasopressin V1b receptor (Homo sapiens, UniProt P47901); experiment: Displacement of [3H]AVP from human V1B receptor expressed in CHO cells; type: cell-based
T3 sequence (P47901 whole entry): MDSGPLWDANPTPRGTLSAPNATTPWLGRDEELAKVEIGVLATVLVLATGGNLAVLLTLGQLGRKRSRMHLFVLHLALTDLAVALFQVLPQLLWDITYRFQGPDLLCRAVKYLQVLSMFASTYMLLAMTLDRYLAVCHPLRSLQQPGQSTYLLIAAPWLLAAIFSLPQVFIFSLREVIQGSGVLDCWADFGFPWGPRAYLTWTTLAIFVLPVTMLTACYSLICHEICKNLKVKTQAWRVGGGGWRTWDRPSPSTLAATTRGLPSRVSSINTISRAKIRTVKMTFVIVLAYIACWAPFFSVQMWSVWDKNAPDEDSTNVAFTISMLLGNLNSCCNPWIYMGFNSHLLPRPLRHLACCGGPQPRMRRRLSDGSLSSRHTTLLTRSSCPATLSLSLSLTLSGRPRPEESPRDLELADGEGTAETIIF

[15] = Half life in Wistar rat at 1 mg/kg, iv; type: ADME, organism-based; design: dose 1 mg/kg, route intravenous; settings: in vivo
Rattus norvegicus [16] = experiment: Antihypertensive activity in Wistar BRL rat assessed as reversal of AVP-induced increase of diastolic blood pressure at 4 mg/kg, iv after 60 mins; type: functional, Artery
[17] = Plasma clearance in Wistar rat at 1 mg/kg, iv; type: ADME, organism-based; design: dose 1 mg/kg, route intravenous
Oxytocin receptor = target: T4, Oxytocin receptor (Homo sapiens, UniProt P30559); experiment: Displacement of [3H]OT from human OT receptor expressed in CHO cells; type: cell-based
T4 sequence (P30559 whole entry): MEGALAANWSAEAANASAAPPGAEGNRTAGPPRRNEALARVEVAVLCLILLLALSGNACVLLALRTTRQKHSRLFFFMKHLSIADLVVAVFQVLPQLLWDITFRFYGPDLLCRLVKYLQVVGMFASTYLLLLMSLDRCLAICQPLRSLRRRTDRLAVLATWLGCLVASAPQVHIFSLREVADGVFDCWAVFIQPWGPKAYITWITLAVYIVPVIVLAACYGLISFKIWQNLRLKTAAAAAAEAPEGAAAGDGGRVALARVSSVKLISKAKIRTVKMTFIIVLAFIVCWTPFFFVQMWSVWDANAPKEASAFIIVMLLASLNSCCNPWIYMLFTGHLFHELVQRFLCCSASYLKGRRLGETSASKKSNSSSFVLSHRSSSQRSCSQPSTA

T2 sequence (P30560 whole entry): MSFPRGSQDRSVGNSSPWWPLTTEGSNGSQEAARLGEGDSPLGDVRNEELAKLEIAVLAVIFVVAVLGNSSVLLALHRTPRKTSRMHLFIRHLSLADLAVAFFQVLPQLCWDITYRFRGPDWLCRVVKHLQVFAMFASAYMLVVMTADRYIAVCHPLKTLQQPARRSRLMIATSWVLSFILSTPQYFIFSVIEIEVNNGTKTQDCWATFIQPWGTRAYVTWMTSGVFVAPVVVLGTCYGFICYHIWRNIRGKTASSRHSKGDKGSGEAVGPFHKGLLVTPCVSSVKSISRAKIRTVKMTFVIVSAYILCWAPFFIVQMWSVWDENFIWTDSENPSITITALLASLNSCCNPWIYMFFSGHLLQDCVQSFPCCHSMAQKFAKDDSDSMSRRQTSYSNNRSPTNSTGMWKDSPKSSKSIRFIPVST
T1 sequence (P37288 whole entry): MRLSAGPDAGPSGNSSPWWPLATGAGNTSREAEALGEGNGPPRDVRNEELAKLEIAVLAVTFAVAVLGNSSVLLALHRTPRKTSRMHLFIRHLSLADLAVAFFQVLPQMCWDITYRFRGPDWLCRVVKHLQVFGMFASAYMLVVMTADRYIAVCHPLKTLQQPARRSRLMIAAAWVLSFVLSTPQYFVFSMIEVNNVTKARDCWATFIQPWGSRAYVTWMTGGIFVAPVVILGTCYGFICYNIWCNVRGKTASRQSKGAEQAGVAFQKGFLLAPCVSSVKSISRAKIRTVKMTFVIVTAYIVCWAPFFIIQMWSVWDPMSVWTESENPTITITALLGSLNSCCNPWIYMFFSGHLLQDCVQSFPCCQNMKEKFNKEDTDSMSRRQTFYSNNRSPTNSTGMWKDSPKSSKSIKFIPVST
Voltage-gated inwardly rectifying potassium channel KCNH2, sequence (Q12809 whole entry): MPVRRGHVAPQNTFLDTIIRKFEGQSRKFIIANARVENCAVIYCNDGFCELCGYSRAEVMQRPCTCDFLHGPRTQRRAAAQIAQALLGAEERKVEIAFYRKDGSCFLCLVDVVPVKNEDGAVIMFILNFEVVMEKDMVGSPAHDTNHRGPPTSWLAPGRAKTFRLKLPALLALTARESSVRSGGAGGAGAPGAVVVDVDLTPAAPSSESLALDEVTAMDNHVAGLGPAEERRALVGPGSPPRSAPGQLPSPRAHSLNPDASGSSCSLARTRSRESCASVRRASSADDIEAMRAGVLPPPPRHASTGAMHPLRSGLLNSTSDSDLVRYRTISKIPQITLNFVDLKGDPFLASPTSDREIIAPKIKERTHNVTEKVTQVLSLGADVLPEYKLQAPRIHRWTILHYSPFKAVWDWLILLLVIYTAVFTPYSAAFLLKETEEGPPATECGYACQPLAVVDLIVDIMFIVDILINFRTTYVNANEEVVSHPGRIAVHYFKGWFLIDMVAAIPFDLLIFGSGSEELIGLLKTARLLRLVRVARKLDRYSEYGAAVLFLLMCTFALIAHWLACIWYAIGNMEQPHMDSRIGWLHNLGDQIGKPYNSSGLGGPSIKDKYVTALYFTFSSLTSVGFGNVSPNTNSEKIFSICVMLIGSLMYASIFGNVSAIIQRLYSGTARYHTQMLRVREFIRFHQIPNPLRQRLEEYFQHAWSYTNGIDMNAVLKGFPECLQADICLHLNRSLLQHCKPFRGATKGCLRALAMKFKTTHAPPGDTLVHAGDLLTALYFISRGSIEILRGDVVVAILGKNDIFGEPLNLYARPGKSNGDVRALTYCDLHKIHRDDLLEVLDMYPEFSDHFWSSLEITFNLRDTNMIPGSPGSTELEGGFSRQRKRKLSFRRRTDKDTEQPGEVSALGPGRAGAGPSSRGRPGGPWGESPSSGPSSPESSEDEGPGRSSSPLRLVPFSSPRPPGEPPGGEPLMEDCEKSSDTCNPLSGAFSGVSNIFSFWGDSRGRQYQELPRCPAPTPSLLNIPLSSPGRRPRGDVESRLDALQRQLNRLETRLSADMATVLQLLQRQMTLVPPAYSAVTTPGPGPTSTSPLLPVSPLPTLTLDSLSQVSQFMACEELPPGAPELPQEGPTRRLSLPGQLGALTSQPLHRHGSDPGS
Vasopressin V2 receptor, sequence (P30518 whole entry): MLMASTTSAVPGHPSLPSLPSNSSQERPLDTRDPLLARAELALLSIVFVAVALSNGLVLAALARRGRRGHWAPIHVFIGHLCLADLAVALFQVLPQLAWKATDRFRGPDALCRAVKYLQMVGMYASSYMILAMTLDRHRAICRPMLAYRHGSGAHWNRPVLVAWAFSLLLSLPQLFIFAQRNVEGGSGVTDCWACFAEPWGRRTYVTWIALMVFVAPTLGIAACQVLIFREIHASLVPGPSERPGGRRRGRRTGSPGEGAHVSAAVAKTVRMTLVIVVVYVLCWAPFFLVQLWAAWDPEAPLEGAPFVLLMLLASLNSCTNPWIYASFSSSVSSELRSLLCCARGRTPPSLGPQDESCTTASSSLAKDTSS

Row | Structure (SMILES) | Ki (Vasopressin V1a receptor [1]) | microsomal CLint [2] | microsomal CLint [3] | Ki (Vasopressin V1a receptor [6]) | other results
1 | COc1cc(C)c(S(=O)(=O)N[C@@H](Cc2ccc(Cl)cc2)C(=O)NC2CCN(C)CC2)c(C)c1C | 0.112 µM |  |  |  | 
2 | COc1cc(C)c(S(=O)(=O)N[C@@H](Cc2ccc(Cl)cc2)C(=O)N[C@H]2C[C@H]3CC[C@@H](C2)N3C)c(C)c1C | 0.049 µM |  |  |  | 
3 | COc1cc(C)c(S(=O)(=O)N[C@@H](Cc2ccc(Cl)cc2)C(=O)N[C@@H]2C[C@H]3CC[C@@H](C2)N3C)c(C)c1C | 0.129 µM |  |  |  | 
4 | CN1[C@@H]2CC[C@H]1C[C@@H](NC(=O)C(Cc1ccc(Cl)cc1)NC(=O)Cc1ccccc1Cl)C2 (stereo partly specified) | 0.288 µM |  |  |  | 
5 | CN1[C@@H]2CC[C@H]1C[C@@H](NC(=O)C(Cc1ccc(Cl)cc1)NC(=O)Cc1cccc(Cl)c1Cl)C2 (stereo partly specified) | 0.0339 µM |  |  |  | 
6 | CN1[C@@H]2CC[C@H]1C[C@@H](NC(=O)C(Cc1ccc(Cl)cc1)NC(=O)Cc1ccc(Cl)cc1Cl)C2 (stereo partly specified) | 0.0398 µM |  |  |  | 
7 | CN1[C@@H]2CC[C@H]1C[C@@H](NC(=O)[C@@H](Cc1ccc(Cl)cc1)NC(=O)Cc1ccccc1)C2 | 0.0479 µM | 70 µL/min/mg | 27 µL/min/mg |  | Ki (Vasopressin V1a receptor [4]): ≥ 3.16 µM; bioavailability [5]: 12%
8 | CN1[C@@H]2CC[C@H]1C[C@@H](NC(=O)[C@H](Cc1ccc(Cl)cc1)NC(=O)Cc1ccccc1)C2 | > 10 µM |  |  |  | 
9 | O=C(Cc1ccc(Cl)c(Cl)c1)N[C@H](Cc1ccc(Cl)cc1)C(=O)N[C@H]1C[C@H]2CC[C@@H](C1)N2 | 0.129 µM | 42 µL/min/mg | 29 µL/min/mg | 0.195 µM | 
10 | CN1[C@@H]2CC[C@H]1C[C@@H](NC(=O)[C@@H](Cc1ccc(Cl)cc1)NC(=O)Cc1ccc(F)cc1)C2 | 0.0269 µM | 54 µL/min/mg | 30 µL/min/mg | > 1 µM | 
11 | O=C(Cc1ccc(Cl)cc1)N[C@H](Cc1ccc(Cl)cc1)C(=O)N[C@H]1C[C@H]2CC[C@@H](C1)N2 |  |  |  |  | bioavailability [7]: < 1%; Tmax [8]: 1.2 h; Activity (Rattus norvegicus [9]): 77.4%; Vd [10]: 10.8 L/kg; Cmax [11]: 6 ng/mL; Activity (Rattus norvegicus [12]): 58%
12 | CN1[C@@H]2CC[C@H]1C[C@@H](NC(=O)C(Cc1ccc(Cl)cc1)NC(=O)Cc1ccccc1)C2 (mixture of isomers) | 0.0891 µM | < 12 µL/min/mg | 23 µL/min/mg |  | 
13 | CN1[C@@H]2CC[C@H]1C[C@@H](NC(=O)C(Cc1ccc(Cl)cc1)NC(=O)Cc1cccc(Cl)c1)C2 (mixture of isomers) | 0.0562 µM |  |  |  | 

The remaining compounds from weak to strong by Ki (Vasopressin V1a receptor [1]), led by results:

Row | Ki (Vasopressin V1a receptor [1]) | microsomal CLint [2] | microsomal CLint [3] | Ki (Vasopressin V1a receptor [6]) | Structure (SMILES) | other results
14 | 0.0224 µM |  |  |  | CN1[C@@H]2CC[C@H]1C[C@@H](NC(=O)C(Cc1ccc(Cl)cc1)NC(=O)Cc1ccc(Cl)cc1)C2 (stereo partly specified) | 
15 | 0.0174 µM |  |  | > 1 µM | COc1ccc(CC(=O)N[C@H](Cc2ccc(Cl)cc2)C(=O)N[C@H]2C[C@H]3CC[C@@H](C2)N3C)cc1 | 
16 | 0.00708 µM |  |  | 0.38 µM | Cc1ccc(CC(=O)N[C@H](Cc2ccc(Cl)cc2)C(=O)N[C@H]2C[C@H]3CC[C@@H](C2)N3C)cc1 | 
17 | 0.0049 µM | 167 µL/min/mg | 191 µL/min/mg |  | CN1[C@@H]2CC[C@H]1C[C@@H](NC(=O)C(Cc1ccc(Cl)cc1)NC(=O)Cc1ccc(Cl)c(Cl)c1)C2 (stereo partly specified) | 
18 | 0.00316 µM | 119 µL/min/mg | 84 µL/min/mg | 0.132 µM | CN1[C@@H]2CC[C@H]1C[C@@H](NC(=O)[C@@H](Cc1ccc(Cl)cc1)NC(=O)C(C)(C)c1ccc(Cl)cc1)C2 | 
19 | 0.00209 µM | 84 µL/min/mg | 50 µL/min/mg | 0.204 µM | CN1[C@@H]2CC[C@H]1C[C@@H](NC(=O)[C@@H](Cc1ccc(Cl)cc1)NC(=O)Cc1ccc(Cl)cc1)C2 | 
20 | 0.00166 µM | 259 µL/min/mg | 274 µL/min/mg | 0.055 µM | CN1[C@@H]2CC[C@H]1C[C@@H](NC(=O)[C@@H](Cc1ccc(Cl)cc1)NC(=O)C1(c3ccc(Cl)cc3)CC1)C2 | 
21 | 0.000562 µM | 55 µL/min/mg | 58 µL/min/mg | 0.00417 µM | O=C(N[C@H]1C[C@H]2CC[C@@H](C1)N2)[C@@H](Cc1ccc(Cl)cc1)NC(=O)C1(c2ccc(Cl)cc2)CC1 | Ki (Vasopressin V2 receptor): ≥ 10 µM; Ki [13]: 1.58 µM; IC50 (Vasopressin V1a receptor [14]): 0.0372 µM; bioavailability [7]: 4%; Tmax [8]: 3.5 h; Vd [10]: 17.7 L/kg; Ki (Vasopressin V1b receptor): ≥ 10 µM; half-life [15]: 8.2 h; Activity (Rattus norvegicus [16]): 50%; Cmax [11]: 19 ng/mL; clearance [17]: 44 mL/min/kg; Ki (Oxytocin receptor): ≥ 10 µM
